From patent publication US20020128189A1, “Ubiquitination of the transcription factor E2A” (President and Fellows of Harvard College, a Massachusetts …, priority 1996, published 2002)
Square brackets hold non-standard residues; d marks the D form. Peptide text beside a SMILES is read from it. * marks the point of attachment. Nle = CCCC[C@H](N)C(=O)O; Nva = CCC[C@H](N)C(=O)O; Cbz = O=C(OCc1ccccc1)*

Experiments:
20S proteasome = target: T1, 20S proteasome (Homo sapiens, UniProt P28074); settings: cited from earlier work
T1 sequence (P28074 60-263): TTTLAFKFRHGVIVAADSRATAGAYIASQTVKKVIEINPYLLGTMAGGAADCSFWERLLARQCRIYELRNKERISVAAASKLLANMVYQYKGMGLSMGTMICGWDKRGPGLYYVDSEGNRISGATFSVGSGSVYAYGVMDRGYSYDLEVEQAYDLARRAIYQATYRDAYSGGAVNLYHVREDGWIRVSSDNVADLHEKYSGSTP

[1] = test system: p27 inhibitor of cyclin-dependent kinases; settings: cited from earlier work
[2] = test system: NF-kB precursor protein p105; settings: cited from earlier work
ovalbumin degradation = settings: Rock et al., cited from earlier work; for IC50: read-out: concentration causing 50% inhibition of ovalbumin degradation
human E12 = experiment: Pulse-chase analysis of E12 degradation in COS7 cells treated with proteasome/protease inhibitors; format: cell-based; settings: 60 min pulse, 3 hour chase
Method: FIG. 2 is a bar graph representing the relative expression of E12 after treatment with the proteasome inhibitor MG132 and the protease inhibitor leupeptin, as follows. COS cells were electroporated with a human E12 expression plasmid. After electroporation (48 hours), cells were treated with either DMSO (a diluent for MG132), 50 μM MG132, or 1 μg/ml leupeptin for 1 hour. The cells were then pulse-chased with [^35S] methionine and the cell extracts were immunoprecipitated with anti-E12 antibody and analyzed by SDS-PAGE fluorography. Inhibitors were present throughout the entire pulse-chase period.
Cells in 100 mm dishes (either transfected cells 48 hours after transfection or stable cell lines at about 80% confluence) were starved in Met-free DMEM (supplemented with 5% dialyzed fetal bovine serum) for 60 minutes at 37° C. Cells were then pulse-labeled at 37° C. with 100 μCi/ml [^35S]met for 60 minutes at 37° C. Cells were chased in warm DMEM supplemented with 100 μg/ml Met. For the proteasome inhibitor experiment, the inhibitor MG132 […] was added 1 hour before pulse-chase and was present throughout the entire period. […] Incorporation of ^35S into the total protein pool was determined by trichloroacetic acid (TCA) precipitation. […] The bands were measured using a PhosphorImager (Molecular Dynamics). […]

Compound | inhibition of the chymotryptic site on the 20S proteasome (20S proteasome) | effect on degradation of the p27 inhibitor of cyclin-dependent kinases [1] | effect on processing of the NF-kB precursor protein p105 [2] | IC50 (ovalbumin degradation) [nM] | further results
CCCC[C@@H](C=O)NC(=O)[C@H](CC(C)C)NC(=O)[C@H](CC(C)C)NC(C)=O [MG101] (Ac-Leu-Leu-[Nle]-aldehyde) | potent inhibitors | inhibit the degradation | block the processing | – | –
CCC[C@@H](C=O)NC(=O)[C@H](CC(C)C)NC(=O)[C@H](CC(C)C)NC(=O)OCc1ccccc1 [MG115, N-carbobenzoxyl-L-leucinyl-L-leucinyl-L-norvalinal] (Cbz-Leu-Leu-[Nva]-aldehyde) | potent inhibitors | – | – | 400 | potency relative to LLnL (ovalbumin proteolysis) (ovalbumin degradation): approximately 5 fold
CC(C)C[C@@H](C=O)NC(=O)[C@H](CC(C)C)NC(=O)[C@H](CC(C)C)NC(=O)OCc1ccccc1 [MG132] (Cbz-Leu-Leu-Leu-aldehyde) | potent inhibitors | inhibit the degradation | block the processing | – | E12 protein stability (effect on E12 degradation) (human E12; 50 μM MG132 added 1 hour before and present throughout): stabilized
CC(=O)N[C@@H](CC(C)C)C(=O)N[C@@H](CC(C)C)C(=O)N[C@H](C=O)CCCNC(=N)N [leupeptin] | – | – | – | – | E12 protein stability (effect on E12 degradation) (human E12; leupeptin 1 μg/ml added 1 hour before and present throughout): no effect
CSCC[C@@H](C=O)NC(=O)[C@H](CC(C)C)NC(=O)[C@H](CC(C)C)NC(C)=O [LLM, N-acetyl-L-leucinyl-L-leucinyl-methional] (Ac-Leu-Leu-Met-aldehyde) | – | – | – | > 100000 | –
